IC50 data for 1 molecule are collected here from ChEMBL document CHEMBL5728358, “JAK1 selective inhibitors” (2021).

In this assay the target is Tyrosine-protein kinase JAK1 (Homo sapiens, UniProt P23458). The experiment in a line: JAK enzyme was expressed as N-terminal GST fusion in insect cells and purified by glutathione-affinity and size-exclusion chromatographies. […] Phosphorylated and unphosphotylated peptides were separated and quantified by a Caliper LC3000 system (Caliper Life Sciences, MA) for calculating percent inhibition. It counts as organism-based.

SMILES strings stand for the structures.

Chain of Tyrosine-protein kinase JAK1 (P23458 whole entry, the tested form may be a part): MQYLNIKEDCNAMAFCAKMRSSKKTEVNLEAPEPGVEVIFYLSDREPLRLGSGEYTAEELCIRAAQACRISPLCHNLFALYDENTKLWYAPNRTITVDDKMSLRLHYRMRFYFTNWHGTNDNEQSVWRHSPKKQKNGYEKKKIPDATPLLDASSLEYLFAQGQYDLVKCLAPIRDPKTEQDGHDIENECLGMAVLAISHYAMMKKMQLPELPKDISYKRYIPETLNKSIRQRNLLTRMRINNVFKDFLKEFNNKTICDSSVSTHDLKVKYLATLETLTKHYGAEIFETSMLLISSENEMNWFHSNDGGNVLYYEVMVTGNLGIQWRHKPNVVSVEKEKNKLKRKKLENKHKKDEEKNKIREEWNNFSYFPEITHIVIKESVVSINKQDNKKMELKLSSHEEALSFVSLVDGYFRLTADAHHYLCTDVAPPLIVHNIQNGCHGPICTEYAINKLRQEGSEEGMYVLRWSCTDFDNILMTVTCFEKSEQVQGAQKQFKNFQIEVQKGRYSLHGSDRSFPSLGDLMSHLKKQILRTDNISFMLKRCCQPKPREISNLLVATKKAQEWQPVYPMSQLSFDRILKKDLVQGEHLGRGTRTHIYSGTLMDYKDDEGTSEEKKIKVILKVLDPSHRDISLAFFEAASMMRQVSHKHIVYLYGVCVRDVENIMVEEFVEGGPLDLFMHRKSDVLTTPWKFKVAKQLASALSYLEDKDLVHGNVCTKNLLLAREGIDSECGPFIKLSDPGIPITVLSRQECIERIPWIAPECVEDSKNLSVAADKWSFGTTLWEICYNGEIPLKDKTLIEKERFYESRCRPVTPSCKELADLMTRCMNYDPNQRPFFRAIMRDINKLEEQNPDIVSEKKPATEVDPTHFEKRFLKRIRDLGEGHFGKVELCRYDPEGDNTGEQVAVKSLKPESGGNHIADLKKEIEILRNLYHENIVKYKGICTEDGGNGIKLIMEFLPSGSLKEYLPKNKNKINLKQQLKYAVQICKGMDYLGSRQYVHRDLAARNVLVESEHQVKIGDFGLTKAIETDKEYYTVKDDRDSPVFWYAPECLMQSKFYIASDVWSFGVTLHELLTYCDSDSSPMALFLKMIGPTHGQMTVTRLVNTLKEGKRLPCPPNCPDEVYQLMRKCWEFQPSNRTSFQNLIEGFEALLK

The term IC50 denotes the concentration needed to halve the response being measured. `Cc1cnc(Nc2cccc(S(C)(=O)=O)c2F)nc1-c1c[nH]c2c(NC(=O)[C@@H](C)N3C[C@H](C)N[C@@H](C)C3)cccc12`: the IC50 is 3.4 nM.
